Measured values published in patent US20180273531A1, “PYRIMIDINE COMPOUND AND MEDICAL USE THEREOF” (Japan Tobacco Inc., priority 2004, published 2018).

system: p15 protein; test: Evaluation of p15 induction activity (Western blotting); type: cell-based; conditions: test substance 0.1 μM, 24 hrs, ACHN cells or HT-29 cells, compared to DMSO, n=2
Description: ACHN cells or HT-29 cells were cultured in a 6 well plate at 2.5×10^5 cells/1.8 mL/well for 24 hrs, then a test substance (0.1 μM) dissolved in DMSO was added. After 24 hrs, cells were detached using trypsin-EDTA (ethylene diamine tetraacetic acid) and solubilized with NuPAGE LDS sample buffer (Invitrogen). Using an RC DC protein assay kit (BIO-RAD), the protein concentration of the sample was quantitated, and a sample in an amount corresponding to 10 μg of BSA (bovine serum albumin) was analyzed by Western blotting using an anti-p15 antibody. The density of the band stained with the anti-p15 antibody was measured by a densitometer to quantify the amount of p15 protein. As a control, DMSO was used and the test was performed with n=2 and the average protein amount was determined.

SMILES	fold induction at 0.1 µM
Cn1c(=O)cc(Nc2ccc(F)cc2)c2c(=O)n(-c3ccccc3)c(=O)n(-c3ccccc3)c21 [Example 1-8]	≥ 1.5
Cn1c(=O)cc(Nc2ccccc2)c2c(=O)n(-c3ccccc3)c(=O)n(-c3ccccc3)c21 [Example 1-12]	≥ 1.5
Cn1c(=O)cc(Nc2ccc3c(c2)OCO3)c2c(=O)n(-c3ccccc3)c(=O)n(-c3ccccc3)c21 [Example 1-16]	≥ 1.5
Cn1c(=O)cc(Nc2ccc(Cl)c(Cl)c2)c2c(=O)n(-c3ccccc3)c(=O)n(-c3ccccc3)c21 [Example 1-17]	≥ 1.5
Cn1c(=O)c2c(Nc3ccc(Cl)cc3)cc(=O)n(C)c2n(-c2ccccc2)c1=O [Example 1-35]	≥ 1.5
Cn1c(=O)cc(NCC(C)(C)C)c2c(=O)n(-c3ccccc3)c(=O)n(-c3ccccc3)c21 [Example 1-36]	≥ 1.5
Cn1c(=O)cc(Nc2ccc(C(=O)O)cc2)c2c(=O)n(-c3ccccc3)c(=O)n(-c3ccccc3)c21 [Example 1-37]	≥ 1.5
CCCC(CCC)c1ccc(Nc2cc(=O)n(C)c3c2c(=O)n(-c2ccccc2)c(=O)n3-c2ccccc2)cc1 [Example 1-40]	≥ 1.5
Cn1c(=O)cc(Nc2ccc(N)cc2)c2c(=O)n(-c3ccccc3)c(=O)n(-c3ccccc3)c21 [Example 1-46]	≥ 1.5
Cc1cc(Cl)ccc1Nc1cc(=O)n(C)c2c1c(=O)n(-c1ccccc1)c(=O)n2-c1ccccc1 [Example 1-53]	≥ 1.5
CCNc1ccc(Nc2cc(=O)n(C)c3c2c(=O)n(-c2ccccc2)c(=O)n3-c2ccccc2)cc1 [Example 1-65]	≥ 1.5
Cn1c(=O)cc(Nc2ccc(Cl)cc2)c2c(=O)n(-c3ccc(F)cc3)c(=O)n(-c3ccc(F)cc3)c21 [Example 1-79]	≥ 1.5
Cn1c(=O)cc(Nc2ccc(Cl)cc2)c2c(=O)n(C3CCCC3)c(=O)n(-c3ccccc3)c21 [Example 1-80]	≥ 1.5
CC(C)n1c(=O)c2c(Nc3ccc(Cl)cc3)cc(=O)n(C)c2n(-c2ccccc2)c1=O [Example 1-81]	≥ 1.5
CCn1c(=O)c2c(Nc3ccc(Br)cc3)cc(=O)n(C)c2n(-c2ccccc2)c1=O [Example 1-96]	≥ 1.5
Cn1c(=O)cc(Nc2ccc(Br)cc2)c2c(=O)n(C3CCC3)c(=O)n(-c3ccccc3)c21 [Example 1-107]	≥ 1.5
Cc1ccccc1-n1c(=O)n(CC(F)(F)F)c(=O)c2c(Nc3ccc(Br)cc3)cc(=O)n(C)c21 [Example 1-108]	≥ 1.5
CCn1c(=O)c2c(Nc3ccc(Cl)cc3)cc(=O)n(C)c2n(-c2ccccc2C)c1=O [Example 1-109]	≥ 1.5
CCn1c(=O)c2c(Nc3ccc(N(C)C)cc3)cc(=O)n(C)c2n(-c2ccccc2C)c1=O [Example 1-110]	≥ 1.5
CCn1c(=O)c2c(Nc3ccc(Br)cc3)cc(=O)n(C)c2n(-c2ccccc2C)c1=O [Example 1-111]	≥ 1.5
CCn1c(=O)c2c(Nc3ccc(Br)cc3)cc(=O)n(C)c2n(-c2ccccc2F)c1=O [Example 1-116]	≥ 1.5
CCn1c(=O)c2c(Nc3ccc(N(C)C)cc3)cc(=O)n(C)c2n(-c2ccccc2F)c1=O [Example 1-117]	≥ 1.5
Cc1ccc(-n2c(=O)n(C3CC3)c(=O)c3c(Nc4ccc(N(C)C)cc4)cc(=O)n(C)c32)cc1 [Example 1-126]	≥ 1.5
Cc1cccc(-n2c(=O)n(C3CC3)c(=O)c3c(Nc4ccc(N(C)C)cc4)cc(=O)n(C)c32)c1 [Example 1-127]	≥ 1.5
CCn1c(=O)c2c(Nc3ccc(Br)cc3)cc(=O)n(C)c2n(-c2cccnc2)c1=O [Example 1-131]	≥ 1.5
CN(C)c1ccc(Nc2cc(=O)n(C)c3c2c(=O)n(C2CC2)c(=O)n3-c2ccc(F)cc2)cc1 [Example 1-132]	≥ 1.5
CN(C)c1ccc(Nc2cc(=O)n(C)c3c2c(=O)n(C2CC2)c(=O)n3-c2cccc(F)c2)cc1 [Example 1-133]	≥ 1.5
CNc1ccc(Nc2cc(=O)n(C)c3c2c(=O)n(C2CC2)c(=O)n3-c2ccccc2)cc1 [Example 1-136]	≥ 1.5

system: colorectal cancer cell line HT-29 cells; test: Growth inhibitory effect against cancer cell lines (3H-thymidine uptake), HT-29; type: cell-based; conditions: Homo sapiens, HT-29, inhibition of 3H-thymidine uptake; test substance 18 hrs, then 3H-thymidine 6 hrs; triplicate
Description: Renal cancer cell line ACHN cell or colorectal cancer cell line HT-29 cells were cultured in a 96 well plate at 1.0×10^4 cells/90 μL/well for 24 hrs, then a test substance dissolved in DMSO (dimethyl sulfoxide) was added. After 18 hrs, ^3H-thymidine (0.25 μCi/well) was added and the cells were cultured for 6 hrs. Using a cell harvester, the cells were recovered on a UniFilter-96 GF/B glass filter and the ^3H radioactivity uptaken by the cells was measured by TopCount (Packard). As a control, DMSO was used and the activity of the test substance was expressed in the concentration (IC50) necessary for inhibiting ^3H radioactivity uptaken by the cell to 50% of that of the control group. The measurements were made in triplicate.

SMILES	IC50
CCn1c(=O)c2c(Nc3ccc(Br)cc3)cc(=O)n(C)c2n(-c2ccccc2)c1=O [Example 1-96]	100 to 1000 nM
CCn1c(=O)c2c(Nc3ccc(Br)cc3)cc(=O)n(C)c2n(-c2ccccc2C)c1=O [Example 1-111]	100 to 1000 nM
CCn1c(=O)c2c(Nc3ccc(Br)cc3)cc(=O)n(C)c2n(-c2ccccc2F)c1=O [Example 1-116]	100 to 1000 nM
CCn1c(=O)c2c(Nc3ccc(N(C)C)cc3)cc(=O)n(C)c2n(-c2ccccc2F)c1=O [Example 1-117]	100 to 1000 nM
Cc1ccc(-n2c(=O)n(C3CC3)c(=O)c3c(Nc4ccc(N(C)C)cc4)cc(=O)n(C)c32)cc1 [Example 1-126]	100 to 1000 nM
Cc1cccc(-n2c(=O)n(C3CC3)c(=O)c3c(Nc4ccc(N(C)C)cc4)cc(=O)n(C)c32)c1 [Example 1-127]	100 to 1000 nM
CN(C)c1ccc(Nc2cc(=O)n(C)c3c2c(=O)n(C2CC2)c(=O)n3-c2ccc(F)cc2)cc1 [Example 1-132]	100 to 1000 nM
CN(C)c1ccc(Nc2cc(=O)n(C)c3c2c(=O)n(C2CC2)c(=O)n3-c2cccc(F)c2)cc1 [Example 1-133]	100 to 1000 nM
CNc1ccc(Nc2cc(=O)n(C)c3c2c(=O)n(C2CC2)c(=O)n3-c2ccccc2)cc1 [Example 1-136]	100 to 1000 nM
